{
  "source": "patent US20250339385A1",
  "about": "“TOPICAL FORMULATION OF DIMETHYLCURCUMIN” (ANNJI PHARMACEUTICAL CO., LTD., priority 2021, published 2025)",
  "test": "Solubility of API (Formula I) in aqueous system / solvents",
  "type": "physicochemical",
  "procedure": "When the API of Formula I is in the aqueous system, it forms crystals and precipitates out of solution. To investigate a compatible matrix that allows greater Formula I solubility, various systems containing Formula I were stored at room temperature for 24 hours and were examined under a polarized light microscope to observe the presence or absence of Formula I crystal precipitation.",
  "data": [
    {"substance": "dimethylcurcumin [Formula I]", "values": [
      {"measurement": "solubility of API in aqueous phase (aqueous system)", "setting": "aqueous system", "result": "practically insoluble"},
      {"measurement": "solubility of API in diethylene glycol monoethyl ether", "setting": "diethylene glycol monoethyl ether", "result": "good solubility"}
    ]}
  ]
}
